ChEMBL document CHEMBL1201862, “PubChem BioAssay data set” (2004)
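Method: 48-hour compound exposure of cells in 96-well plates, five concentrations, linear interpolation of endpoints. GI50 is the concentration that inhibits growth by half.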 Calls of active or inactive are those of the source. Cut-off read from the data, not from the text of the source: active = GI50 up to about 1.1 µM and inactive = higher.

Assays:
Assay in all cases: inhibition of tumour cell growth, NCI panel, 48 h
CAKI-1 = system: CAKI-1
SK-MEL-2 = system: SK-MEL-2
SW-620 = system: SW-620
RPMI-8226 = system: RPMI-8226
BT-549 = system: BT-549
SK-MEL-28 = system: SK-MEL-28
A549 = system: A549
A498 = system: A498
CCRF-CEM = system: CCRF-CEM
HT-29 = system: HT-29
HOP-92 = system: HOP-92
DU-145 = system: DU-145
SF-539 = system: SF-539
UACC-62 = system: UACC-62
SNB-19 = system: SNB-19
OVCAR-5 = system: OVCAR-5
PC-3 = system: PC-3
K562 = system: K562
NCI-H460 = system: NCI-H460
NCI-H226 = system: NCI-H226

Measured: GI50

CCCCCc1nnc(NS(=O)(=O)c2ccc(NC(=O)OCC(C)C)cc2)s1
inactive: CAKI-1 36.2 µM | SK-MEL-2 19.1 µM | SW-620 40.6 µM | RPMI-8226 19.3 µM | BT-549 32.1 µM | SK-MEL-28 41.8 µM | A549 34.2 µM | A498 2.64 µM | CCRF-CEM 26.4 µM | HT-29 26.8 µM | HOP-92 24.1 µM | DU-145 52 µM | SF-539 26.8 µM | UACC-62 29.5 µM | SNB-19 69.3 µM | OVCAR-5 54.7 µM | PC-3 36.8 µM | K562 25.2 µM | NCI-H460 31 µM

COc1ccc(/N=N/C(=O)NC(CC(C)C)C(=O)NC(CC(C)C)C(=O)O)cc1 (centres undefined)
inactive: CAKI-1 > 100 µM | SW-620 67 µM | RPMI-8226 > 100 µM | BT-549 > 100 µM | SK-MEL-28 17.8 µM | A549 38.9 µM | A498 > 100 µM | CCRF-CEM 42.6 µM | HT-29 > 100 µM | HOP-92 > 100 µM | DU-145 27.7 µM | SF-539 4.81 µM | UACC-62 16.6 µM | SNB-19 > 100 µM | OVCAR-5 4.02 µM | PC-3 18.7 µM | NCI-H226 > 100 µM | K562 8.45 µM | NCI-H460 68.9 µM

COC1CC2C=CC3C4OC2(/C(C)=C/C(C)C(C(C)O)OC1=O)C3C(O)C(C)C4OC(=O)c1ccc[nH]1 (centres undefined)
inactive: CAKI-1 > 100 µM | SK-MEL-2 > 100 µM | SW-620 > 100 µM | RPMI-8226 35.6 µM | BT-549 81.5 µM | SK-MEL-28 > 100 µM | A549 > 100 µM | A498 > 100 µM | CCRF-CEM 25.9 µM | HT-29 66.8 µM | HOP-92 > 100 µM | DU-145 82 µM | SF-539 59.6 µM | UACC-62 > 100 µM | SNB-19 > 100 µM | OVCAR-5 > 100 µM | PC-3 46.6 µM | NCI-H460 67 µM

N#Cc1c2c([nH]c(=O)c1C#N)CCCC2
inactive: CAKI-1 > 100 µM | SK-MEL-2 > 100 µM | SW-620 > 100 µM | BT-549 > 100 µM | SK-MEL-28 > 100 µM | A549 > 100 µM | A498 > 100 µM | CCRF-CEM > 100 µM | HT-29 > 100 µM | HOP-92 79.1 µM | DU-145 > 100 µM | SF-539 > 100 µM | UACC-62 > 100 µM | SNB-19 > 100 µM | OVCAR-5 > 100 µM | PC-3 > 100 µM | NCI-H226 > 100 µM | K562 > 100 µM | NCI-H460 > 100 µM

O=C1/C(=C/Cc2ccco2)N=C(c2ccccc2)N1c1nc2ccc(Sc3ccccc3)cc2[nH]1
inactive: CAKI-1 25.4 µM | SK-MEL-2 16.1 µM | SW-620 34 µM | RPMI-8226 24.2 µM | BT-549 20.3 µM | SK-MEL-28 28.2 µM | A549 29.8 µM | A498 8.36 µM | CCRF-CEM 19.3 µM | HT-29 25 µM | HOP-92 18.7 µM | DU-145 23.1 µM | SF-539 28.5 µM | UACC-62 20.7 µM | SNB-19 33.2 µM | OVCAR-5 25.9 µM | PC-3 22.9 µM | K562 28.1 µM | NCI-H460 26.9 µM

O=[N+]([O-])c1ccc2c(c1)nc(Cc1ccccc1)n2C[C@@H]1CCCN2CCCCC12 (some centres undefined)
inactive: CAKI-1 28.3 µM | SK-MEL-2 20.9 µM | SW-620 40.4 µM | BT-549 26.7 µM | SK-MEL-28 18.6 µM | A549 51.2 µM | A498 13.4 µM | CCRF-CEM 17.6 µM | HT-29 17.5 µM | HOP-92 3.71 µM | DU-145 60.5 µM | UACC-62 19.5 µM | SNB-19 56.4 µM | OVCAR-5 28.5 µM | PC-3 37.3 µM | NCI-H226 89.9 µM | K562 18.7 µM | NCI-H460 41.4 µM

Cc1cc(S(=O)(=O)NC2=Nc3ccccc3C(c3ccccc3)N2)c(S)cc1Cl (centres undefined)
inactive: CAKI-1 45.8 µM | SW-620 > 100 µM | RPMI-8226 63.7 µM | BT-549 > 100 µM | SK-MEL-28 > 100 µM | A549 18.2 µM | A498 > 100 µM | CCRF-CEM 32.6 µM | HT-29 > 100 µM | HOP-92 > 100 µM | DU-145 > 100 µM | SF-539 > 100 µM | UACC-62 > 100 µM | SNB-19 34 µM | OVCAR-5 > 100 µM | PC-3 16.4 µM | NCI-H226 17.4 µM | K562 87.9 µM | NCI-H460 12.9 µM

CCOC(=O)c1c[nH]c2c(Sc3ccccc3)nccc2c1=O
inactive: CAKI-1 41.3 µM | SK-MEL-2 > 100 µM | SW-620 > 100 µM | BT-549 30.7 µM | SK-MEL-28 > 100 µM | A549 87.5 µM | A498 > 100 µM | CCRF-CEM 22.3 µM | HT-29 97.5 µM | HOP-92 46.9 µM | DU-145 90.8 µM | SF-539 77.8 µM | UACC-62 36.7 µM | SNB-19 > 100 µM | OVCAR-5 > 100 µM | PC-3 > 100 µM | NCI-H226 95.3 µM | NCI-H460 > 100 µM
